In ChEMBL document CHEMBL6182913, “Design of Potent Small-Molecule Stimulator of Interferon Gene Inhibitor and Stimulator of Interferon Gene Mutant-Specific Degrader” (J Med Chem, 2025):
The source made the active and inactive calls. No cut-off for these calls is given here.

What was measured:
[1] = molecular target: T1, Stimulator of interferon genes protein (Homo sapiens, UniProt Q86WV6, G230A/R293Q/R71H); experiment: Inhibition of cGAMP-induced STING HAQ mutant transfected in human THP1-Blue ISG cells preincubated with compound for 6 hrs followed by cGAMP addition and measured after 18 hrs by QUANTI-Blue based microplate reader analysis; type: cell-based
[2] = Cytotoxicity against human THP1-Blue ISG cells assessed as inhibition of cell growth at 10 uM incubated for 24 hrs by MTS assay relative to control; type: toxicity, cell-based
[3] = molecular target: T1, Stimulator of interferon genes protein; experiment: Inhibition of diABZI-induced STING HAQ mutant transfected in human THP1-Blue ISG cells preincubated with compound for 6 hrs followed by diABZI addition and measured after 18 hrs by QUANTI-Blue based microplate reader analysis; type: cell-based
[4] = molecular target: T2, Stimulator of interferon genes protein (Mus musculus, UniProt Q3TBT3); experiment: Inhibition of cGAMP-induced mouse STING transfected in human THP-1 cells preincubated with compound for 6 hrs followed by cGAMP addition and measured after 18 hrs by QUANTI-Luc based microplate reader analysis; type: cell-based
T2 sequence (Q3TBT3 whole entry): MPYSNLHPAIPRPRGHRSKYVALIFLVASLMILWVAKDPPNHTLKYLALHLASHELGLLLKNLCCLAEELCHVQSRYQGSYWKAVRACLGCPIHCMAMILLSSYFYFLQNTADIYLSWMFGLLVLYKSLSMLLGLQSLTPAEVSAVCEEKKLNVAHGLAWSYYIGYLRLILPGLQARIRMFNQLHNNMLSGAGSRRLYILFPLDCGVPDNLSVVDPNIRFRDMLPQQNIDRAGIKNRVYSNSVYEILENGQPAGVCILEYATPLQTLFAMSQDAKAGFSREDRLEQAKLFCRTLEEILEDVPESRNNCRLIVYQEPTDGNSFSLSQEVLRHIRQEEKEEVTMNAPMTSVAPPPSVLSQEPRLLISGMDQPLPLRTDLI

[5] = molecular target: T3, Stimulator of interferon genes protein (Homo sapiens, UniProt Q86WV6); experiment: Inhibition of STING in human THP-1 cells assessed as inhibition of cGAMP-induced IFN-beta release at 0.05 to 0.5 uM pretreated with compound for 6 hrs followed by cGAMP addition and measured after 18 hrs by ELISA; type: cell-based; settings: dose 0.05-0.5 µM, time 24.0 hrs
Target sequence in this assay (Q86WV6 whole entry): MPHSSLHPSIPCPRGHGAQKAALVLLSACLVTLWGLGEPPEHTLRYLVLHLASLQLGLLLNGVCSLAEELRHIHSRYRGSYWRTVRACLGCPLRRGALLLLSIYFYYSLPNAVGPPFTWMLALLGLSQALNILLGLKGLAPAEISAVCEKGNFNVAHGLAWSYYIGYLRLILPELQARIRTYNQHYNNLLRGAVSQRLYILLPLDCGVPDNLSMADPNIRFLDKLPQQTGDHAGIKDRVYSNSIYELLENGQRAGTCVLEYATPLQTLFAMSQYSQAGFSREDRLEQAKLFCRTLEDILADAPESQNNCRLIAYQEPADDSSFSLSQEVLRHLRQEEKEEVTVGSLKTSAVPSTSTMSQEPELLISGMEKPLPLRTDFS

[6] = molecular target: T4, Stimulator of interferon genes protein (Mus musculus) (UniProt Q3TBT3); experiment: Inhibition of STING in mouse BMDM cells assessed as inhibition of cGAMP-induced CXCL-10 release at 0.05 to 0.5 uM pretreated with compound for 6 hrs followed by cGAMP addition and measured after 18 hrs by ELISA; type: cell-based; settings: dose 0.05-0.5 µM, time 24.0 hrs
T4 sequence (whole entry): T2 sequence (Q3TBT3 whole entry)

[7] = molecular target: T4, Stimulator of interferon genes protein (Mus musculus); experiment: Inhibition of STING in mouse BMDM cells assessed as inhibition of LPS-induced IFN-beta release at 0.05 to 0.5 uM pretreated with compound for 6 hrs followed by LPS addition and measured after 18 hrs by ELISA; type: cell-based; settings: dose 0.05-0.5 µM, time 24.0 hrs
[8] = molecular target: T4, Stimulator of interferon genes protein (Mus musculus); experiment: Inhibition of STING in mouse BMDM cells assessed as inhibition of ODN 2395-induced IFN-beta release at 0.05 to 0.5 uM pretreated with compound for 6 hrs followed by ODN 2395 addition and measured after 18 hrs by ELISA; type: cell-based; settings: dose 0.05-0.5 µM, time 24.0 hrs
[9] = molecular target: T3, Stimulator of interferon genes protein; experiment: Inhibition of STING activation in human THP1-Blue ISG cells assessed as decrease in cGAMP-induced IRF3 phosphorylation at 0.1 to 1 uM preincubated with compound for 6 hrs followed by cGAMP addition and measured after 3 hrs by Western blotting analysis; type: cell-based; settings: dose 0.1-1 µM, time 9.0 hrs
Target sequence in this assay (Q86WV6 whole entry): as above

[10] = molecular target: T3, Stimulator of interferon genes protein; experiment: Inhibition of STING activation in human THP1-Blue ISG cells assessed as inhibition of c-GAMP-induced STING dimerization at 0.1 to 1 uM preincubated with compound for 6 hrs followed by cGAMP addition and measured after 3 hrs by Western blotting analysis; type: cell-based; settings: dose 0.1-1 µM, time 9.0 hrs
Target sequence in this assay (Q86WV6 whole entry): as above

[11] = molecular target: T3, Stimulator of interferon genes protein; experiment: Inhibition of STING activation in human THP1-Blue ISG cells assessed as reduction in STING dimer level at 0.1 to 1 uM incubated for 9 hrs by Western blotting analysis; type: cell-based; settings: dose 0.1-1 µM
Target sequence in this assay (Q86WV6 whole entry): as above

[12] = test system: Stimulator of interferon genes protein (Homo sapiens), Q86WV6 [UNDEFINED MUTATION]; experiment: Induction of STING M155 mutant degradation in human THP-1 cells at 5 uM incubated for 24 hrs by global proteomics analysis; type: cell-based
[13] = test system: Stimulator of interferon genes protein (Homo sapiens), Q86WV6 [UNDEFINED MUTATION]; experiment: Induction of STING S154 mutant degradation in human THP-1 cells at 1 uM incubated for 12 hrs by Western blotting analysis; type: cell-based
[14] = test system: Stimulator of interferon genes protein (Homo sapiens), Q86WV6 [UNDEFINED MUTATION]; experiment: Induction of STING S154 mutant degradation in human THP-1 cells at 1 uM incubated for 48 hrs by Western blotting analysis; type: cell-based
[15] = test system: Stimulator of interferon genes protein (Homo sapiens), Q86WV6 [UNDEFINED MUTATION]; experiment: Induction of STING M155 mutant degradation in human THP-1 cells at 1 uM incubated for 12 hrs by Western blotting analysis; type: cell-based
[16] = molecular target: T3, Stimulator of interferon genes protein; experiment: Induction of STING M155 mutant degradation in human THP-1 cells incubated for 24 hrs by Western blotting analysis; type: cell-based
Target sequence in this assay (Q86WV6 whole entry, looked up, change not shown): as the sequence (Q86WV6 whole entry) above

[17] = test system: Stimulator of interferon genes protein (Homo sapiens), Q86WV6 [UNDEFINED MUTATION]; experiment: Induction of STING M155 mutant degradation in human THP-1 cells at 1 uM preincubated with MG132 for 2 hrs followed by compound addition and measured after 22 hrs by Western blotting analysis; type: cell-based
[18] = test system: Stimulator of interferon genes protein (Homo sapiens), Q86WV6 [UNDEFINED MUTATION]; experiment: Induction of STING M155 mutant degradation in human THP-1 cells at 1 uM preincubated with MLN4924 for 2 hrs followed by compound addition and measured after 22 hrs by Western blotting analysis; type: cell-based
[19] = Metabolic stability in mouse liver microsomes assessed as half life at 10 uM in presence of NADPH by LC-MS/MS analysis; type: ADME, Microsome
[20] = Metabolic stability in human liver microsomes assessed as half life at 10 uM in presence of NADPH by LC-MS/MS analysis; type: ADME, Microsome
[21] = Metabolic stability in mouse plasma assessed as half life in presence of NADPH by LC-MS/MS analysis; type: ADME, cell-free
[22] = Metabolic stability in human plasma assessed as half life in presence of NADPH by LC-MS/MS analysis; type: ADME, cell-free
[23] = Cmax in mouse at 20 mg/kg, po by LC-MS/MS analysis; type: ADME, organism-based; settings: in vivo, po, 20 mg/kg
[24] = Half life in mouse at 20 mg/kg, po by LC-MS/MS analysis; type: ADME, organism-based; settings: in vivo
[25] = Apparent oral clearance in mouse at 20 mg/kg, po by LC-MS/MS analysis; type: ADME, organism-based; settings: in vivo
[26] = molecular target: T4, Stimulator of interferon genes protein (Mus musculus); experiment: In vivo inhibition of cGAMP-induced STING activation in autoimmune disease female C57BL/6 mouse model assessed as decrease in cGAMP-induced serum CXCL-10 level at 10 mg/kg, sc pretreated with compound for 2 hrs followed by cGAMP addition and measured after 3 hrs by ELISA; type: functional, organism-based
[27] = molecular target: T4, Stimulator of interferon genes protein (Mus musculus); experiment: In vivo inhibition of cGAMP-induced STING activation in autoimmune disease female C57BL/6 mouse model assessed as decrease in cGAMP-induced serum CXCL-10 level at 20 mg/kg, po pretreated with compound for 2 hrs followed by cGAMP addition and measured after 3 hrs by ELISA; type: functional, organism-based

Sequence of Stimulator of interferon genes protein (Homo sapiens), Q86WV6 [UNDEFINED MUTATION] (Q86WV6 whole entry, looked up, change not shown): as the sequence (Q86WV6 whole entry) above
T1 sequence (Q86WV6 whole entry R71H/G230A/R293Q): as the sequence (Q86WV6 whole entry) above, with R71H, G230A, R293Q counted along it

IC50 [1]: 0.11 µM
IC50 [3]: 0.12 µM
IC50 [4]: 0.03 µM
inhibition [5]: Active
inhibition [6]: Active
inhibition [7]: inactive
inhibition [8]: inactive
inhibition [9]: Active
inhibition [10]: Active
inhibition [11]: Active
Activity [12]: Active
Activity [13]: Active
Activity [15]: Active
DC50 [16]: 0.76 µM
Activity [17]: Active
Activity [18]: Active
half-life at 10 µM [19]: > 1 h
half-life at 10 µM [20]: > 1 h
half-life [21]: > 4 h
half-life [22]: > 4 h
Cmax [23]: 293 ng/mL
Cmax ([23]; read-out: Cmax): 200 nM
half-life [24]: 3.3 h
CL/F [25]: 163 mL/min/kg
inhibition [26]: Active
inhibition [27]: Active
Compound: COc1ccc2c(c1)C(=O)N(c1ccc(C(C)(C)C)c(F)c1)C(c1cc3cc(-c4ccc(C(=O)Nc5ccc(O)c(NS(C)(=O)=O)c5)cc4)ccc3o1)C2C(N)=O (stereo not drawn)
inhibition at 24 h, 10 µM [2]: 34.4%
Activity [14]: Active; Compound Showed Maximum Degradation
